From US20260355318A1, “MOLECULAR MACHINES FOR TREATMENT OF CANCER, FUNGAL INFECTIONS, OR BACTERIAL INFECTIONS” (priority 2022, published 2026)

Legend:
[1] = Estimated rotation rate after light activation; details: based on known motors with similar core skeletons
[2] = test system: E. coli; test: Tetracycline uptake; assay type: cell-based, Escherichia coli; details: 0.5×MIC MM pre-treatment, vs DMSO
Procedure: The ability of pre-treatment with subinhibitory concentrations of MMs to potentiate antibiotic killing was further evaluated by monitoring the fluorescence of tetracycline uptake. […] Irradiated cell suspensions were then collected, and tetracycline (128 μg mL^−1 final concentration) was added. A volume of 100 μL per well of tetracycline amended cell suspension was transferred to a black 96-well plate and fluorescence was read every 5 min for 60 min at room temperature in a microplate reader (Ex: 405 nm, Em: 535 nm) (BioTek Instruments Inc, Winooski, VT, USA). Results were expressed as RFU corrected for fluorescence in the absence of cells.

[3] = test system: B. cepacia; test: MIC, B. cepacia; assay type: cell-based; details: Burkholderia cepacia, read-out: MIC of MM
Procedure: The appropriate volume of an MM stock at 8 mM necessary to achieve a concentration ranging from 0.3125 to 40 μM was pipetted into a 2 mL microcentrifuge tube to which 1 mL of cell suspension prepared as previously described was added. Corresponding negative controls (DMSO only) were prepared in the same way. The mixture was gently mixed by pipetting and incubated in the dark at 30 or 37 ° C, depending on the strain, for 30 min with agitation (220 rpm). Afterward, MM- or DMSO-treated cells were dispensed in one well of a 24-well plate positioned in the center of the light beam (405 nm LED Light, Prizmatix, UHP—F-5-405) placed at the appropriate distance necessary to achieve the desired light intensity of 304 mW cm-2, 146 mW cm2 or 87 mW cm2, as measured with a handheld digital power meter console coupled to an S415C thermal power sensor head (Thorlabs, Newton, MA, USA). The temperature during irradiation was monitored using a thermocouple probe (Model SC-TT-K-30-36-PP; Omega Engineering, Inc., Stanford, CT, USA). Samples were agitated during irradiation. Dark controls were prepared as previously described except that no irradiation was provided. […]

[4] = test system: S. aureus; test: MIC, S. aureus; assay type: cell-based, Staphylococcus aureus; details: for MIC of MM: S. aureus; for MIC: Staphylococcus aureus, read-out: MIC of MM
Procedure, shortened: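 Cell suspensions were exposed to compound at 0.3125-40 μM for 30 min in the dark, with agitation, at 30 or 37 °C depending on strain. Each sample was then irradiated with 405 nm light at 146 mW cm^−2 for 5 min (43.8 J cm^−2), inoculated into MHB and incubated overnight. MIC was read as the lowest concentration without visible growth, alongside non-irradiated controls.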

[5] = test system: C. albicans; test: Development of resistance / cross-resistance in C. albicans (serial passage, single-step); assay type: cell-based; details: Candida albicans, read-out: MIC of MM in antifungal-resistant C. albicans
Procedure: FIG. 3: Evaluation of the development of resistance to MMs in C. albicans. For the stepwise resistance assessment by serial passage (left), C. albicans cell suspensions were treated with increasing concentrations (0.3125-160 μM) of different MMs (8 mM stock in DMSO) and then irradiated with […] light (87.6 J cm^−2). The irradiated cell suspensions were then inoculated in MOPS-buffered RPMI 1640 (pH 7.0, Sigma, MO, USA), and the tubes were incubated at 30 ° C for 48 h. […] Cells able to grow at 0.5×MIC of each MM were collected by centrifugation (5,000×g, 5 min), resuspended and re-challenged with a range of MM concentrations and irradiated with 405 nm light (87.6 J cm^−2). The procedure was repeated for a total of 20 consecutive cycles. […] Irradiated cells were then inoculated in YPD and incubated at 30 °C. However, MM-resistant colonies could not be recovered even after 14 days of incubation. Created with Biorender.com.
A modified version of the broth microdilution serial passage method was used to assess the development of resistance to visible-light-activated MMs in C. albicans (Kapoor et al., 2019). C. albicans cell suspensions were prepared and irradiated as previously described for the determination of MM MIC. Cells were then inoculated into buffered RPMI 1640 and incubated at 30 ° C for 48 h. Cells able to grow at 0.5×MIC of MM were centrifuged (5,000×g, 5 min), resuspended, rechallenged with different MM concentrations, and irradiated with 405-nm light (87.6 J cm^−2). The procedure was repeated for 20 consecutive cycles. The antifungals AMB, CAS, and FLC were processed similarly, except that light was omitted, and used as controls.

[6] = test system: mitochondrial cytochrome c; test: Cytochrome c release; assay type: cell-based, Candida albicans; details: 2×MIC, p<0.05
Procedure: Cells were harvested for protoplast preparation by digestion with zymolyase 20 T (20 mg mL-1, US Biological Life Sciences, MA, USA) in 0.1 M potassium phosphate buffer (pH 6.0) containing 1 M sorbitol for 1 h at 30 °C. Mitochondrial cytochrome c was extracted and reduced with ascorbic acid (0.5 mg mL^−1) as previously described (Yun and Lee, 2016). The absorbance at 550 nm was determined on a Beckman Coulter DU 800 spectrophotometer (Fullerton, CA, USA). Cytochrome c levels were normalized to the protein content determined using the Pierce assay (Pierce™ BCA Protein Assay Kit, Thermo Fisher Scientific, MA, USA).

Compound	estimated rotation rate after light activation [1] [MHz]	intracellular tetracycline fluorescence [2]	MIC [3] [µM]	MIC of MM ([4]; Table 9, 405 nm light 43.8 J cm^−2)	MIC [4] [µM]	MIC [5] [µM]	mitochondrial cytochrome c levels [6]	MIC of MM ([4]; 405 nm light) [µM]
C[C@@H]1Cc2ccc3ccccc3c2/C1=C1\c2ccccc2Sc2cc(NCCN)ccc21 (racemic) [MM 6, N^1-(9-(2-methyl-2,3-dihydro-1H-cyclopenta[a]naphthalen-1-ylidene)-9H-thioxanthen-3-yl)ethane-1,2-diamine]	3	substantial increase in intracellular tetracycline fluorescence	10	0.078	0.078	2.5	significant reductions in mitochondrial cytochrome c levels	
C[C@@H]1Cc2ccc3ccccc3c2/C1=C1\c2ccccc2Sc2cc(NCCN(C)C)ccc21 [MM 1, N^1N^1-dimethyl-N^2-(9-(2-methyl-2,3-dihydro-1H-cyclopenta[a]naphthalen-1-ylidene)-9H-thioxanthen-3-yl) ethane-1,2-diamine]	3	substantial increase in intracellular tetracycline fluorescence	10		0.156	1.25	significant reductions in mitochondrial cytochrome c levels	0.156
